# In patent US20050260126A1 (priority 2002, published 2005):
# Legend:
# [1] = system: abnormal prion proteins in ScN2a cells with persistent infection of scrapie; assay: cells; type: cell-based, mouse; details: for IC50: Mus musculus, ScN2a, 96 h, read-out: Inhibitory effects on producing abnormal prion protein IC50; for Inhibitory effects on producing abnormal prion proteins (in words): ScN2a cells
# ScN2a cells = details: for Concentration of inhibiting cell proliferation TC: mouse
Compound,IC50 [1] [nM],Concentration of inhibiting cell proliferation TC (ScN2a cells),Inhibitory effects on producing abnormal prion proteins (in words) [1],TC and safety concentration margin (in words) (ScN2a cells)
"Nc1ccc(-c2nc3ccc(O)cc3s2)cc1 [BF-160, 2-(4-aminophenyl)-6-hydroxybenzothiazole]",10,10 µM,–,–
"Clc1ccc2nc(-c3cccs3)cn2c1 [Compound N-471, 2-(2-thienyl)-6-chloro imidazo[1,2-a]pyridine]",1000,≧100 μM,–,–
"CN(C)c1ccc(/C=C/c2nccn2C)cc1 [BF-138, 2-[2-(4-dimethylamino-phenyl)ethenyl]-1-methylimidazole]",100,100 µM,–,–
"Nc1ccc(-c2nc3ccc(N)c(Cl)c3[nH]2)cc1 [Compound N-234, 2-(4-aminophenyl)-7-chloro-6-amino-benzimidazole]",100,>10 µM,–,–
"CCN(CC)c1ccc2cc(-c3nc4ccccc4[nH]3)c(=O)oc2c1 [SA-272, 2-(7-diethylamino-coumarin-3-yl)-benzimidazole]",1000,100 µM,–,–
"Nc1ccc(C(=O)Nc2ccc3nc(-c4cc(Cl)c(NC(=O)c5ccc(N)cc5)c(Cl)c4)[nH]c3c2Cl)cc1 [Compound N-233, 4-[6-(N′-(4-amino-benzoyl)amino)-7-chlorobenzimidazol-2-yl]-N-(4-aminobenzoyl)-2,6-dichloroaniline]",100,10 µM,–,–
"Nc1ccc(-c2nc3cc(N)ccc3s2)c(O)c1 [Compound N-232, 2-(4-amino-2-hydroxy-phenyl)-5-amino-benzothiazole]",1,10 µM,highly inhibitory effects,–
"CN(C)c1ccc(/C=C/c2nc3cc([N+](=O)[O-])ccc3o2)cc1 [BF-135, 2-(4-dimethylamino) styryl-5-nitrobenzoxazole]",1,100 µM,highly inhibitory effects,"higher TCs, therefore higher safety concentration margins"
"Nc1ccc(-c2nc3cc(N)ccc3s2)cc1 [Compound N-231, 2-(4-aminophenyl)-5-aminobenzothiazole]",10,10 µM,–,–
"Nc1ccc(C(=O)Nc2ccc(-c3nc4cc(N)ccc4[nH]3)cc2)cc1 [Compound N-243, 4-(5-aminobenzimidazol-2-yl)-N-(4-amino-benzoyl)aniline]",1,>10 µM,highly inhibitory effects,–
"Nc1ccc(-c2nc3ccc(N)cc3s2)cc1 [Compound N-224, 2-(4-aminophenyl)-6-aminobenzothiazole]",1,>10 µM,highly inhibitory effects,–
"Cc1cc(N)cc2nc(-c3ccc(N)c(Cl)c3)[nH]c12 [Compound N-240, 2-(4-amino-3-chloro-phenyl)-5-amino-7-methylbenzimidazole]",100,10 µM,–,–
Nc1ccc(-c2nc3cc(Cc4ccc5oc(-c6ccc(N)cc6)nc5c4)ccc3o2)cc1 [Compound N-221],1,>10 µM,highly inhibitory effects,–
Nc1ccc(-c2nc3cc(Oc4ccc5[nH]c(-c6ccc(N)cc6)nc5c4)ccc3[nH]2)cc1 [Compound N-241],10,10 µM,–,–
"Nc1ccc(-c2nc3ccc(N)cc3[nH]2)cc1 [Compound N-245, 2-(4-aminophenyl)-5-aminobenzimidazole]",100,10 µM,–,–
"Clc1ccc(/C=C/c2nc3ccccc3s2)c(Cl)c1 [Compound N-452, 2-[2-(2,4-dichloro-phenyl)ethenyl]-benzothiazole]",100,100 µM,–,–
"Cc1ccc2nc(-c3sc(-c4ccccc4)nc3C)cn2c1 [Compound N-473, 2-(2-phenyl-4-methylthiazol-5-yl)-6-methyl-imidazo[1,2-a]pyridine]",1000,100 µM,–,–
"Cc1cc2[nH]c(-c3ccc(N)cc3)nc2cc1N [Compound N-242, 2-(4-aminophenyl)-5-amino-6-methyl-benzimidazole]",100,10 µM,–,–
Nc1ccc(-c2nc3cc(Oc4ccc(Oc5ccc6[nH]c(-c7ccc(N)cc7)nc6c5)cc4)ccc3[nH]2)cc1 [Compound N-244],10,>10 µM,–,–
"Clc1ccc2nc(-c3ccccc3)c(Br)n2c1 [Compound N-468, 2-phenyl-3-bromo-6-chloroimidazo[1,2-a]pyridine]",1000,100 µM,–,–
"Nc1ccc(-c2cn3ccccc3n2)cc1 [Compound N-461, 2-(4-aminophenyl)-imidazo[1,2-a]pyridine]",100,>10 µM,–,–
"COc1ccc(/C=C/c2nc3ccccc3s2)cc1 [Compound N-455, 2-[2-(4-methoxyphenyl)-ethenyl]benzothiazole]",10,100 µM,–,–

Compound,IC50 [1] [nM],Concentration of inhibiting cell proliferation TC (ScN2a cells),Inhibitory effects on producing abnormal prion proteins (in words) [1],TC and safety concentration margin (in words) (ScN2a cells)
"C/C(=C\c1ccc(N)cc1)c1nc2ccccc2[nH]1 [Compound N-442, 4-[2-(2-benzimidazolyl)-2-methylethenyl]benzenamine]",100,100 µM,–,–
"Nc1ccc(-c2nc3ccc(N)cc3o2)cc1 [Compound N-226, 2-(4-aminophenyl)-6-aminobenzoxazole]",100,>10 µM,–,–
"Nc1ccc(C(=O)Nc2ccc(-c3nc4cc(N)ccc4o3)cc2)cc1 [Compound N-220, 4-(5-aminobenzoxazol-2-yl)-N-(4-amino-benzoyl)aniline]",1,10 µM,highly inhibitory effects,–
C(=C\c1cncs1)/c1nc2ccccc2o1 [BF-234],40,>10 µM,–,–
"Clc1ccc2nc(-c3ccc(Br)s3)cn2c1 [Compound N-472, 2-(5-bromo-2-thienyl)-6-chloroimidazo[1,2-a]pyridine]",10,100 µM,–,–
"Ic1ccc2nc(-c3ccccc3)cn2c1 [Compound N-469, 2-phenyl-6-iodo-imidazo[1,2-a]pyridine]",100,≧100 μM,–,–
"Cc1ccc2nc(-c3ccc(NC(=O)c4cccs4)cc3)sc2c1 [HT-042, 4-(6-methylbenzothiazol-2-yl)-N-(thio-phen-2-carbonyl)aniline]",10,>100 µM,–,–
"Cc1ccn2cc(-c3ccccc3)nc2c1 [Compound N-463, 2-phenyl-7-methyl-imidazo[1,2-a]pyridine]",100,100 µM,–,–
"Nc1ccccc1/C=C/c1nc2ccccc2[nH]1 [Compound N-402, 2-[2-(2-aminophenyl)ethenyl]benzimidazole]",50,50 µM,–,–
"Nc1ccc(-c2nc3cc(N)ccc3o2)cc1 [Compound N-225, 2-(4-aminophenyl)-5-aminobenzoxazole]",100,>10 µM,–,–
"CN(C)c1ncc(-c2ccc3ccccc3n2)o1 [BF-221, 2-(2-dimethylamino-oxazol-5-yl)quinoline]",80,>10 µM,–,–
"Cc1ccn2c(Br)c(-c3ccccc3)nc2c1 [Compound N-467, 2-phenyl-3-bromo-7-methylimidazo[1,2-a]pyridine]",1000,100 µM,–,–
"Clc1ccc2nc(-c3cc(-c4ccccc4)no3)cn2c1 [Compound N-465, 2-(3-phenylisoxazol-5-yl)-6-chloroimidazo [1,2-a]pyridine]",10,100 µM,–,–
"CN(C)c1ccc(/C=C/c2nc3ccc4ccccc4c3s2)cc1 [Compound N-283, 4-[2-(naphth[4,5-c]-thiazol-2-yl)ethenyl]-N,N-dimethylbenzenamine]",500,50 µM,–,–
"Nc1cccc(-c2cn3cc(Cl)ccc3n2)c1 [Compound N-475, 2-(3-aminophenyl)-6-chloroimidazo[1,2-a]pyridine]",100,100 µM,–,–
"Clc1ccc2nc(-c3ccccc3)cn2c1 [Compound N-464, 2-phenyl-6-chloro-imidazo[1,2-a]pyridine]",100,100 µM,–,–
"Nc1ccc(C(=O)Nc2ccc(-c3nc4cc(Cl)c(NC(=O)c5ccc(N)cc5)cc4[nH]3)cc2)cc1 [Compound N-246, 4-[6-(N′-(4-amino-benzoyl)amino)-5-chlorobenzimidazol-2-yl]-N-(4-aminobenzoyl)aniline]",1,10 µM,highly inhibitory effects,–
"Cc1ccc2nc(-c3ccc(NC(=O)c4ccc(Cl)cc4)cc3)sc2c1 [HT-041, 4-(6-methylbenzothiazol-2-yl)-N-(4-chloro-benzoyl)aniline]",10,>10 µM,–,–
"Cc1ccc2nc(-c3ccc(NC(=O)Nc4cccc(Cl)c4)cc3)sc2c1 [HT-043, 4-(6-methylbenzothiazol-2-yl)-N-(3-chlorophenyl-aminocarbonyl)aniline]",100,>10 µM,–,–
"CN(C)c1ccc2cc(-c3nc4cc(F)ccc4o3)cnc2c1 [BF-161, 5-fluoro-2-(7-dimethyl-aminoquinolin-3-yl)-benzoxazole]",10,100 µM,–,–
"Cc1cccc(/C=C/c2nc3cc(C)ccc3s2)c1 [Compound N-439, 2-[2-(3-methylphenyl)-ethenyl]-5-methyl-benzothiazole]",10,100 µM,–,–
